Measured values reported in US10131663B2, “Chemical compounds” (AstraZeneca AB, priority 2016, dated 2018).
Converted amounts (≈) assume the structure as drawn.

How the values were obtained:
[1] = Thermodynamic solubility (shake-flask); format: physicochemical; settings: aqueous phosphate buffer, 25 °C, pH 7.4, aqueous buffer, thermodynamic from solid, aqueous phosphate buffer pH 7.4, 24 hours
Outline: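 Shake-flask method starting from 10 mM DMSO stocks, which are dried before use. Residue equilibrated 24 h at 25° C. in aqueous phosphate buffer, pH 7.4. Dissolved fraction separated and quantified by UPLC/MS/MS, with QC samples in each run.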

[2] = target: T1, Estrogen Receptor (ERα) in MCF-7 cells (Homo sapiens (Human), UniProt P03372); test: Western blotting assay, ER down-regulation in MCF-7; format: cell-based; settings: 100 nM compound, 48 h, normalised to 100 nM fulvestrant
T1 sequence (P03372 whole entry): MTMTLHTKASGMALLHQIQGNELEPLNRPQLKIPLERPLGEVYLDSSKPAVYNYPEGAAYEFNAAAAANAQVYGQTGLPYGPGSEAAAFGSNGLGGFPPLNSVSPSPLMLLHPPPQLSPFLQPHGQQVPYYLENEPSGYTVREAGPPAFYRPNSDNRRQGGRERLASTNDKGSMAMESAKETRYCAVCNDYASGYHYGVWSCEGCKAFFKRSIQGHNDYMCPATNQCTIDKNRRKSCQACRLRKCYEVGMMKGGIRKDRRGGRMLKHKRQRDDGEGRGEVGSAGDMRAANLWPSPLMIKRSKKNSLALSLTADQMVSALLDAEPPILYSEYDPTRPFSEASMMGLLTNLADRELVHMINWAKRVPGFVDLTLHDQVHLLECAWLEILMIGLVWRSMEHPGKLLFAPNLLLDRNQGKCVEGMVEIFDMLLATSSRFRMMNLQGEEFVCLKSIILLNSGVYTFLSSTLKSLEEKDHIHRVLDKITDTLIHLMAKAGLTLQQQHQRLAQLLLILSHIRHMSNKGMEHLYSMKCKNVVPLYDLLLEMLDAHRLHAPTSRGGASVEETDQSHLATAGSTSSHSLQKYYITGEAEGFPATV
Outline: (§1)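 Cells treated with compounds at 100 nM or 0.1% DMSO vehicle for 48 h at 37 °C, then lysed; ERα detected by western blot with anti-ERα (SP1) rabbit monoclonal. Down-regulation normalised to vehicle (0%) and 100 nM fulvestrant (100%) run on the same gel.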

[3] = log D (shake flask, 1-octanol/aqueous buffer); format: physicochemical
Outline: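 Distribution between 1-octanol and aqueous buffer at pH 7.4 was measured by shake flask, with compounds run in mixtures of ten. Relative concentrations in each phase were quantified by UPLC with quantitative MS. Caffeine served as a low-log D QC sample in all runs.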

[4] = target: T1, Estrogen Receptor (ERα) in MCF-7 cells; test: MCF-7 ER down-regulation assay (immuno-fluorescence); format: cell-based
Outline: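 Compounds dispensed acoustically from DMSO stocks onto MCF-7 cells; cells fixed 20 min at room temperature, then automated immunostaining for ERα with overnight incubation at 4° C. Read-out is mean total ER fluorescence intensity normalized to cell number (intensity per cell), with curve fitting for concentration-response values.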

[5] = target: estrogen receptor (ERα) in CAMA-1 cells (Homo sapiens (Human), UniProt P03372); test: Western blotting assay, ER down-regulation in CAMA-1; format: cell-based; settings: 100 nM compound, 48 h, normalised to 100 nM fulvestrant
Sequence of estrogen receptor (ERα) in CAMA-1 cells (P03372 whole entry): as above
Outline: as §1

[6] = Human plasma protein binding (equilibrium dialysis); format: in vitro ADME; settings: dialysis 18 hours
Outline: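 Fraction unbound (fu %) in human plasma, from LC/MSMS of plasma and buffer sides (7-point plasma calibration) after 18 h rapid equilibrium dialysis. Single determinations, with compounds pooled up to 10 per plasma pool.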

[7] = target: recombinant human Estrogen Receptor alpha ligand binding domain (ER alpha-LBD (GST)) (Homo sapiens (Human), UniProt P03372); test: ERα binding assay (LanthaScreen TR-FRET competition); settings: TR-FRET, displacement of Fluormone ES2
Sequence of recombinant human Estrogen Receptor alpha ligand binding domain (ER alpha-LBD (GST)) (P03372 307-554): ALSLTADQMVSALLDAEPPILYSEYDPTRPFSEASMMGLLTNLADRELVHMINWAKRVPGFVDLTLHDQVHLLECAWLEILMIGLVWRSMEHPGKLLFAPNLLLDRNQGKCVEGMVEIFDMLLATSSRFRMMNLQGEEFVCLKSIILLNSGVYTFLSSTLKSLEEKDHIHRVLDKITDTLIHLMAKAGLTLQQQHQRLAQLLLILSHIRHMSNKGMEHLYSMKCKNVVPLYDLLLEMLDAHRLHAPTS
Outline: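 Competition binding to GST-tagged human ERα ligand-binding domain, read by LanthaScreen TR-FRET: Tb-anti-GST antibody labels the receptor and compounds displace a fluorescent tracer, lowering the signal. IC50 was taken from dose-response curve fitting.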

[8] = Human Caco-2 bidirectional permeability A to B and B to A; format: in vitro ADME; settings: for Papp at 2 h: Caco-2, 2 hours, pH 7.4; for efflux ratio at 2 h: Caco-2, pH 7.4
[9] = pH 7.4, 1-octanol/aqueous buffer
[10] = 1-octanol/aqueous buffer, pH 7.4, pH 7.4, 1-octanol/aqueous buffer

Compound | solubility at 24 h [1] [µM] | MCF7 Western % ER deg vs Fv [2] [%] | logD [3, 9] | IC50 [4] [nM] | CAMA1 Western % ER deg vs Fv [5] [%] | Human plasma protein binding (% free) [6] [% free] | IC50 [7] [nM] | Papp at 2 h [8] [×10⁻⁶ cm/s] | efflux ratio at 2 h [8] | logD [3, 10]
COc1cc(NC2CN(CCCF)C2)ccc1[C@@H]1c2ccc3[nH]ncc3c2C[C@@H](C)N1CC(C)(F)F [Example 19, N-(4-((6S,8R)-7-(2,2-difluoropropyl)-8-methyl-6,7,8,9-tetrahydro-3H-pyrazolo[4,3-f]isoquinolin-6-yl)-3-methoxyphenyl)-1-(3-fluoropropyl)azetidin-3-amine] | 152 (≈ 76.2 µg/mL) | 92 | 3.7 | 0.063 | 94 | 4.3 | 2.6 | 4.2 | 2.6 | –
COCC(F)(F)CN1[C@H](c2ccc(NC3CN(CCCF)C3)cc2OC)c2ccc3[nH]ncc3c2C[C@H]1C [Example 1, N-(4-((6S,8R)-7-(2,2-difluoro-3-methoxypropyl)-8-methyl-6,7,8,9-tetrahydro-3H-pyrazolo[4,3-f]isoquinolin-6-yl)-3-methoxyphenyl)-1-(3-fluoropropyl)azetidin-3-amine] | 379 (≈ 201 µg/mL) | 91 | – | 0.1 | 92 | 8.3 | 3.7 | 0.9 | 9.4 | 3.4
C[C@@H]1Cc2c(ccc3[nH]ncc23)[C@@H](c2ccc(NC3CN(CCCF)C3)cn2)N1CC(F)(F)CO [Example 16, 2,2-difluoro-3-((6S,8R)-6-(5-((1-(3-fluoropropyl)azetidin-3-yl)amino)pyridin-2-yl)-8-methyl-3,6,8,9-tetrahydro-7H-pyrazolo[4,3-f]isoquinolin-7-yl)propan-1-ol] | 982 (≈ 480 µg/mL) | 104 | 2 | 0.54 | 105 | 64 | 6.9 | 1.6 | 9.7 | –
COc1cc(NC2CN(CCCF)C2)ccc1[C@@H]1c2ccc3[nH]ncc3c2C[C@@H](C)N1CC(F)F [Example 21, N-(4-((6S,8R)-7-(2,2-difluoroethyl)-8-methyl-6,7,8,9-tetrahydro-3H-pyrazolo[4,3-f]isoquinolin-6-yl)-3-methoxyphenyl)-1-(3-fluoropropyl)azetidin-3-amine] | 634 (≈ 309 µg/mL) | 99 | – | 0.098 | 101 | 12 | 2.1 | 4 | 1.6 | 3.1
C[C@@H]1Cc2c(ccc3[nH]ncc23)[C@@H](c2ccc(NC3CN(CCCF)C3)cn2)N1CC1(F)CC1 [Example 3, 6-((6S,8R)-7-((1-fluorocyclopropyl)methyl)-8-methyl-6,7,8,9-tetrahydro-3H-pyrazolo[4,3-f]isoquinolin-6-yl)-N-(1-(3-fluoropropyl)azetidin-3-yl)pyridin-3-amine] | > 941 | 90 | 2.5 | 0.64 | 102 | 26 | 6.5 | 2.3 | 9.2 | –
COc1cc(NC2CN(CCCF)C2)ccc1[C@@H]1c2ccc3[nH]ncc3c2C[C@@H](C)N1CC1(F)CC1 [Example 6, N-(4-((6S,8R)-7-((1-fluorocyclopropyl)methyl)-8-methyl-6,7,8,9-tetrahydro-3H-pyrazolo[4,3-f]isoquinolin-6-yl)-3-methoxyphenyl)-1-(3-fluoropropyl)azetidin-3-amine] | > 947 | 89 | 2.4 | 0.35 | 84 | 34 | 8.8 | 0.9 | 28 | –
COCC(F)(F)CN1[C@H](c2ccc(NC3CN(CCCF)C3)cn2)c2ccc3[nH]ncc3c2C[C@H]1C [Example 2, 6-((6S,8R)-7-(2,2-difluoro-3-methoxypropyl)-8-methyl-6,7,8,9-tetrahydro-3H-pyrazolo[4,3-f]isoquinolin-6-yl)-N-(1-(3-fluoropropyl)azetidin-3-yl)pyridin-3-amine] | 217 (≈ 109 µg/mL) | 93 | – | 3.1 | 95 | 28 | 2.8 | 3.9 | 8.4 | 2.6
COc1cc(NC2CN(CCCF)C2)ccc1[C@@H]1c2ccc3[nH]ncc3c2C[C@@H](C)N1CC(F)(F)F [Example 28, 1-(3-fluoropropyl)-N-(3-methoxy-4-((6S,8R)-8-methyl-7-(2,2,2-trifluoroethyl)-6,7,8,9-tetrahydro-3H-pyrazolo[4,3-f]isoquinolin-6-yl)phenyl)azetidin-3-amine] | 150 (≈ 75.8 µg/mL) | 95 | 3.6 | 0.065 | 110 | 6 | 5.7 | 1.2 | 3.8 | –
C[C@@H]1Cc2c(ccc3[nH]ncc23)[C@@H](c2ncc(NC3CN(CCCF)C3)cc2F)N1CC(F)(F)F [Example 30, 5-fluoro-N-(1-(3-fluoropropyl)azetidin-3-yl)-6-((6S,8R)-8-methyl-7-(2,2,2-trifluoroethyl)-6,7,8,9-tetrahydro-3H-pyrazolo[4,3-f]isoquinolin-6-yl)pyridin-3-amine] | 754 (≈ 373 µg/mL) | 96 | 3 | 0.28 | 98 | 16 | 1.8 | 2.7 | 7.8 | –
COc1cc(NC2CN(CCCF)C2)ccc1[C@@H]1c2ccc3[nH]ncc3c2C[C@@H](C)N1CC(C)(C)F [Example 64, N-(4-((6S,8R)-7-(2-fluoro-2-methylpropyl)-8-methyl-6,7,8,9-tetrahydro-3H-pyrazolo[4,3-f]isoquinolin-6-yl)-3-methoxyphenyl)-1-(3-fluoropropyl)azetidin-3-amine] | 474 (≈ 236 µg/mL) | 86 | 3.2 | 0.22 | 89 | 14 | 6.1 | 2 | 5.6 | –
C[C@@H]1Cc2c(ccc3[nH]ncc23)[C@@H](c2ccc(NC3CN(CCCF)C3)cn2)N1CC(F)F [Example 25, 6-((6S,8R)-7-(2,2-difluoroethyl)-8-methyl-6,7,8,9-tetrahydro-3H-pyrazolo[4,3-f]isoquinolin-6-yl)-N-(1-(3-fluoropropyl)azetidin-3-yl)pyridin-3-amine] | 964 (≈ 442 µg/mL) | 98 | – | 0.33 | 96 | 40 | 4.1 | 5 | 7.4 | 2.5
